Results: the supplement of paper PMC6045584
± gives the standard deviation of the averaged measurements.

Tests used:
BI-2536 = compound: CC[C@@H]1C(=O)N(C)c2cnc(Nc3ccc(C(=O)NC4CCN(C)CC4)cc3OC)nc2N1C1CCCC1 [BI-2536]; experiment: surviving fraction relative to DMSO-only wells; higher = less growth inhibition; settings: exposure time: 5 days
How it was run: (§1)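 Surviving fraction was calculated by normalising CellTiter-Glo luminescence to the median of DMSO-only wells. Tumour cell lines in log phase were seeded in 384-well plates at 250–500 cells per well, and 24 hours later were exposed continuously for five days to inhibitors at 0.5, 1, 5, 10, 50, 100, 500 and 1000 nM.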

TIOGUANINE = compound: Nc1nc2[nH]cnc2c(=S)[nH]1 [TIOGUANINE]; experiment: as above; settings: exposure time: 5 days
How it was run: as §1

Test System	surviving fraction (BI-2536; 0.5 nM)	surviving fraction (BI-2536; 1 nM)	surviving fraction (BI-2536; 5 nM)	surviving fraction (BI-2536; 10 nM)	surviving fraction (BI-2536; 50 nM)	surviving fraction (BI-2536; 100 nM)	surviving fraction (BI-2536; 500 nM)	surviving fraction (BI-2536; 1000 nM)	surviving fraction (TIOGUANINE; 0.5 nM)	surviving fraction (TIOGUANINE; 1 nM)	surviving fraction (TIOGUANINE; 5 nM)	surviving fraction (TIOGUANINE; 10 nM)	surviving fraction (TIOGUANINE; 50 nM)	surviving fraction (TIOGUANINE; 100 nM)	surviving fraction (TIOGUANINE; 500 nM)	surviving fraction (TIOGUANINE; 1000 nM)
ZR751 BREAST	1.22 ± 0.024	1.27 ± 0.16	0.902 ± 0.075	0.655 ± 0.0093	0.72 ± 0.13	0.865 ± 0.094	0.645 ± 0.039	0.434 ± 0.061	1.01 ± 0.07	0.969 ± 0.16	0.82 ± 0.16	0.897 ± 0.064	1.12 ± 0.13	1.02 ± 0.16	1.04 ± 0.013	1.07 ± 0.15
CHLA90 AUTONOMIC GANGLIA	1.07 ± 0.045	0.978 ± 0.062	0.408 ± 0.032	0.203 ± 0.01	0.167 ± 0.027	0.135 ± 0.015	0.132 ± 0.0078	0.0863 ± 0.0025	0.95 ± 0.029	0.99 ± 0.04	1 ± 0.038	0.948 ± 0.034	0.96 ± 0.043	0.913 ± 0.08	0.88 ± 0.057	0.912 ± 0.048
OS25HAL BONE	1.003 ± 0.006	0.933 ± 0.064	0.0997 ± 0.016	0.0533 ± 0.0029	0.0483 ± 0.0015	0.0337 ± 0.004	0.0317 ± 0.0023	0.037 ± 0.002	0.943 ± 0.015	0.951 ± 0.017	0.967 ± 0.0017	0.933 ± 0.027	1 ± 0.024	1.01 ± 0.033	1.002 ± 0.0066	0.955 ± 0.032
COLO320DM LARGE INTESTINE	1.17 ± 0.018	1.08 ± 0.015	1.09 ± 0.051	0.836 ± 0.034	0.191 ± 0.019	0.0987 ± 0.0025	0.105 ± 0.011	0.109 ± 0.0025	1.13 ± 0.03	1.1 ± 0.056	1.003 ± 0.0076	1.09 ± 0.067	1.03 ± 0.019	1.09 ± 0.049	1.078 ± 0.0053	1.04 ± 0.049
OSHN BONE	1.09 ± 0.019	1.075 ± 0.0046	0.874 ± 0.072	0.027 ± 0.001	0.0297 ± 0.00058	0.022 ± 0.001	0.0237 ± 0.0021	0.0237 ± 0.0011	1.01 ± 0.037	1.02 ± 0.026	1.01 ± 0.035	1.02 ± 0.034	1.02 ± 0.048	1.04 ± 0.038	1.01 ± 0.039	0.9787 ± 0.007
SIHA CERVIX	1.11 ± 0.027	1.04 ± 0.065	0.351 ± 0.025	0.263 ± 0.031	0.262 ± 0.016	0.301 ± 0.0078	0.214 ± 0.014	0.147 ± 0.015	0.848 ± 0.07	0.858 ± 0.097	0.994 ± 0.044	0.967 ± 0.084	0.97 ± 0.043	0.987 ± 0.078	0.817 ± 0.029	0.856 ± 0.029
HCC1954 BREAST	0.883 ± 0.13	0.766 ± 0.2	0.245 ± 0.035	0.235 ± 0.057	0.433 ± 0.0095	0.781 ± 0.0014	0.89 ± 0.035	0.699 ± 0.014	0.867 ± 0.18	0.986 ± 0.24	1.08 ± 0.075	0.96 ± 0.1	0.997 ± 0.18	0.911 ± 0.05	0.969 ± 0.054	0.871 ± 0.051
CAL51 BREAST	0.966 ± 0.057	0.87 ± 0.062	0.0793 ± 0.0041	0.0425 ± 0.0026	0.0333 ± 0.0013	0.0258 ± 0.0033	0.0175 ± 0.00087	0.0207 ± 0.00076	0.984 ± 0.03	0.965 ± 0.017	0.999 ± 0.018	1 ± 0.031	1.03 ± 0.049	1.06 ± 0.038	0.992 ± 0.051	0.979 ± 0.026
HT1080 SOFT TISSUE	1.05 ± 0.027	1.067 ± 0.01	0.9357 ± 0.0021	0.087 ± 0.0056	0.0513 ± 0.0051	0.051 ± 0.0035	0.077 ± 0.0046	0.0823 ± 0.0095	1 ± 0.012	0.989 ± 0.026	0.982 ± 0.016	1.04 ± 0.016	1.02 ± 0.041	0.974 ± 0.022	0.81 ± 0.013	0.594 ± 0.036
MDAMB468 BREAST	0.902 ± 0.037	0.462 ± 0.048	0.0863 ± 0.0084	0.111 ± 0.018	0.215 ± 0.018	1.05 ± 0.061	0.111 ± 0.008	0.084 ± 0.0027	1.02 ± 0.079	0.995 ± 0.025	1.08 ± 0.056	1.06 ± 0.1	1.1 ± 0.056	1.19 ± 0.087	1.04 ± 0.087	1.05 ± 0.042
